Assay results taken from patent US20240294881A1, “CELL CULTURE SUPPLEMENT FOR PRODUCING STEM CELLS, AND METHOD FOR PRODUCING STEM CELLS” (OPTICELL, INC, priority 2021, published 2024).

Legend:
[1] = tested on: HOS-143B osteosarcoma cells; assay: Real-time PCR of cancer stem cell and undifferentiated stem cell marker genes in cancer cell spheroids; type: cell-based, human; settings: control no supplement, 2D adhesion proliferation, day 4 = 1.0
Description: (§1) A culture vessel treated with the cell culture supplement was prepared in the same manner as in Example 7, and the same three types of cancer cells as those in Example 7 were cultured. On day 4 and day 15 after the start of culture, spheroids of each of the three types of cancer cells were taken from the culture vessel and collected in an individual 15-mb centrifuge tube, followed by washing with phosphate buffered saline (−). After removal of the medium, cancer cells cultured in the plate free of the cell culture supplement (control) were washed with PBS (−), detached from the plate with 0.05% trypsin-EGTA and dissociated. The cancer cells were then collected in a 15-mL centrifuge tube and washed again with PBS (−). mRNA was extracted from the collected spheroids and control cells, and the expression of cancer stem cell marker genes was analyzed by real-time PCR.
(§2) Specifically, a NucleoZOL reagent (Macherey-Nagel) reagent was added to each type of cells, and RNA was extracted according to the protocol recommended by the reagent manufacturer and used as template RNA for detecting stem cell markers. For real-time PCR analysis, PCR probes from QuantiFast Probe RT-PCR Kits (QIAGEN; No. 204454) and TaqMan Gene Expression Assay Probe (Thermo Fisher Scientific) were used. PCR analysis was performed with a Rotor-Gene Q (QIAGEN) apparatus. For probes for detecting the expression of cancer stem cell marker genes, the following three PCR probes were used: CD24 (mucin-type glycoprotein, ligand for P-selectin, Oncogene), CD44 (cell surface glycoprotein involved cell-cell interaction, adhesion and migration, cancer stem cell marker), CD133 (five transmembrane glycoprotein, stem cell marker and cancer stem cell marker protein). B-actin was used as an endogenous control gene. For probes for detecting the expression of undifferentiated stem cell marker genes, three transcription factors, SOX2 (sex-determining region Y-box 2), OCT4 (octamer binding transcription factor 4), and NANOG (homeodomain transcription factor), which are used in the production of iPS cells, were used; and β-actin was used as the endogenous control gene. In the gene expression analysis, relative quantification was performed according to the ΔΔCt method (Delta Delta Ct method). The results of analysis according to the ΔΔCt method show the amount of a gene expressed by control cells under the conditions of “no cell culture supplement, 2D adhesion proliferation, day 4” as “1.0” in relative terms, and the increase rate in “the expression level in spheroid proliferation on day 15” was determined by comparison (FIGS. 23 to 25).
(§3) Coating of a culture vessel was completed in the same manner as in Examples 7 and 11, and three types of cancer cells, A549 cells, ES2 cells, and 143B cells, were cultured. For probes for detecting the expression of undifferentiated stem cell marker genes, the following three transcription factors were used: SOX2 (sex-determining region Y-box 2), OCT4 (octamer binding transcription factor 4), and NANOG (homeodomain transcription factor); and β-actin was used as an endogenous control gene. In the gene expression analysis, relative quantification was performed according to the ΔΔCt method (Delta Delta Ct method). The results of analysis according to the ΔΔCt method show the amount of a gene expressed by control cells under the conditions of “no cell culture supplement, 2D adhesion proliferation, day 4” as “1.0” in relative terms, and the increase rate in “the expression level in spheroid proliferation on day 15” was determined by comparison (FIGS. 26 to 28).

[2] = tested on: A549 lung cancer cells; assay: as above; type: cell-based, human; settings: control no supplement, 2D adhesion proliferation, day 4 = 1.0
Description: as §1, §2, §3

[3] = tested on: ES2 ovarian cancer cells; assay: as above; type: cell-based, human; settings: for CD24 gene expression level (increase vs control) / CD44 gene expression level (increase vs control) / NANOG gene expression level (increase vs control) / OCT4 gene expression level (increase vs control) / SOX2 gene expression level (increase vs control): control no supplement, 2D adhesion proliferation, day 4 = 1.0
Description: as §1, §2, §3

[4] = tested on: healthy human adult skin fibroblasts; assay: Spheroid culture of healthy human adult skin fibroblasts, microscope observation; type: cell-based; settings: 96-well round-bottom vessel coated with 0.125% solution; uncoated control grew 2D
Description: An aqueous solution of the polypeptide represented by formula (1) (0.125%) (cell culture supplement) was added to a commercial polystyrene-made 96-well round-bottom culture vessel (Nuncion Delta 96U Bottom, Thermo Fisher Scientific) and allowed to stand at 4° C. for 24 hours. The cell culture supplement solution was then removed and the coated cell culture supplement was dried in a dryer at 37° C. for 96 hours to complete the cell culture supplement coating process. Healthy human adult skin fibroblasts (Lonza, normal human dermal fibroblast-adult, referred to as “adult skin fibroblasts” below) were maintained and cultured in a serum-free medium (Fujifilm Wako Pure Chemical Corporation; DMEM/F12 medium, human serum albumin recombinant 0.5 mg/mL, human transferrin recombinant 10 μg/mL, basic-FGF 5 ng/ml, and insulin 2.5 μg/mL). Adult skin fibroblasts floating in 100 μL of the medium were seeded in the 96-well round-bottom culture vessel coated with the cell culture supplement at 2×10^4 cells/well and cultured at 37° C. under 5% CO2 conditions.

## (Pro-Hyp-Gly)n [cell culture supplement]
[1]; day 4 of spheroid culture
  CD24 gene expression level (increase vs control): 1.34 fold
  CD44 gene expression level (increase vs control): 2.3 fold
  CD133 gene expression level (relative to control, printed as decreased): 0.3 fold
  NANOG gene expression level (increase vs control): 1.6 fold
  OCT4 gene expression level (increase vs control): 2.5 fold
  SOX2 gene expression level (increase vs control): 3.5 fold
[1]; day 15 of spheroid culture
  CD24 gene expression level (increase vs control): 1.2 fold
  CD44 gene expression level (increase vs control): 1.9 fold
  CD133 gene expression level (increase vs control): 2.1 fold
  NANOG gene expression level (increase vs control): 1.4 fold
  OCT4 gene expression level (increase vs control): 2.4 fold
  SOX2 gene expression level (increase vs control): 1.6 fold
[2]; day 4 of spheroid culture
  CD24 gene expression level (increase vs control): 2.2 fold
  CD44 gene expression level (increase vs control): 1.6 fold
  CD133 gene expression level (increase vs control): 3.4 fold
  NANOG gene expression level (increase vs control): 10.6 fold
  OCT4 gene expression level (increase vs control): 1.6 fold
  SOX2 gene expression level (increase vs control): 5.0 fold
[2]; day 15 of spheroid culture
  CD24 gene expression level (increase vs control): 4.2 fold
  CD44 gene expression level (increase vs control): 2.9 fold
  CD133 gene expression level (increase vs control): 13.5 fold
  NANOG gene expression level (increase vs control): 55.7 fold
  OCT4 gene expression level (increase vs control): 3.7 fold
  SOX2 gene expression level (increase vs control): 6.0 fold
[3]; day 4 of spheroid culture
  CD24 gene expression level (increase vs control): 11.6 fold
  CD44 gene expression level (increase vs control): 1.3 fold
  NANOG gene expression level (increase vs control): 3.9 fold
  OCT4 gene expression level (increase vs control): 2.6 fold
  SOX2 gene expression level (increase vs control): 1.1 fold
[3]; day 15 of spheroid culture, CD133 on day 4 in spheroid culture taken as control value (1.0), not detected in adhesion proliferation cells
  CD133 gene expression level (increase vs day 4 spheroid culture): 8.5 fold
[3]; day 15 of spheroid culture
  CD24 gene expression level (increase vs control): 63.2 fold
  CD44 gene expression level (increase vs control): 2.9 fold
  NANOG gene expression level (increase vs control): 10.9 fold
  OCT4 gene expression level (increase vs control): 4.6 fold
  SOX2 gene expression level (increase vs control): 3.4 fold
[4]
  spheroid formation: formed spheroids
